The subject of assay [1] is yeast strains expressing the human ApoE4. Description: Yeast ApoE4 toxicity rescue assay (OD600 growth). The settings on record: 24 h; for EC50: read-out: ApoE4 EC50; for Emax: read-out: ApoE4 Emax.
Description: The induced expression of α-synuclein and ApoE4 confers cytotoxicity, thus enabling the identification of compounds that can restore cell viability. This instantaneous/synchronous induction of α-synuclein and ApoE4 can be achieved due to the following expression control. In glucose-containing media, gene expression from the GAL1 promoter is ‘off’ and actively repressed by additional epigenetic factors. In raffinose, expression is ‘off’, but the promoter not actively repressed. Upon transition to galactose-containing media, the promoter is instantaneously turned ‘on’ to achieve robust and synchronous induction of α-synuclein or ApoE4 expression. This highly regulated induction provides a robust window for the determination of both efficacy (amplitude of protective effect) and potency (concentration of protective effect) of cytoprotective compounds.
Re-suspended compound stocks were subsequently arrayed into 384 well compound plates using automated pipetting. All other wells not receiving stock compound were filled with 10 μL of 100% DMSO using an automated plate filler (Multidrop Combi). An 11 point, 2-fold serial dilution was then performed using the robotic platform. Compound assay plates were covered with foil and stored at −20° C. until use.
Each strain was handled according to standard protocols and cultured in media composed of CSM (complete synthetic media), YNB (yeast nitrogenous base), and a 2% (w/v) carbon source (either glucose, raffinose, or galactose).
In a standard yeast assay, a single-use aliquot of cells was thawed on ice and diluted into CSM/glucose (5 mL). Cultures were grown for 8 hours at 30° C. This pre-growth enables the yeast to exit the thaw and begin to grow without expressing aSyn or ApoE4. After 8 hours, cell density (OD600) was determined and cultures diluted to an OD600 of 0.01 in CSM/raffinose for an overnight culture phase at 30° C. During this period, the active glucose repression of the GAL1 promoter was relieved; however, expression of the α-Syn/ApoE4 genes were not yet induced. After ˜16 hours of growth, cultures attain an OD600 of 0.4-0.8 and were ready to apply to assay plates containing compound.
Compound profiling assays were executed in clear-bottom 384 well plates. First, compound plates were thawed at room temperature for 45′, centrifuged at 1,000×g for 1 minute, and the foil removed. Clear 384 well assay plates were then filled with 15 μL of CSM/galactose. […] The pin tool was washed iteratively with both 50% DMSO and 100% ethanol between each assay plate. After delivering compound to each assay plate, the overnight CSM/raffinose aSyn or ApoE4 cultures were added at a 2X cell density (0.04 for aSyn and 0.08 for ApoE4) in CSM/galactose to achieve a final assay OD600 of 0.02 and 0.04 for aSyn and ApoE, respectively. The cultures (15 μL per well) were then dispensed to the compound -containing 384 well assay plates using an automated plate filler. Plates were incubated in a humidified 30° C. incubator for 40 or 24 hours for aSyn and ApoE4, respectively. The ODsoo of each assay plate was then read with a microplate reader (e.g., Perkin Elmer Envision).
The efficacy and potency of compounds were calculated according to the following. Raw data (OD600 values) were first background corrected to account for OD600 contributed by the plate and media itself. The efficacy (percent above DMSO, herein referred to as “Emax”) was calculated according to the equation: (Experimental well−DMSO control well)/(DMSO control well)*100. […] Normalized dose-response data was fit with a logistic regression curve using Spotfire (TIBCO), or similar curve-fitting software package. EC50 values were then reported along with EMax to provide both efficacy and potency measures for each analog and enable further compound design.
Assay [2] has as its system yeast strains expressing the human α-synuclein. Description: Yeast α-synuclein toxicity rescue assay (OD600 growth). The settings on record: 40 h; for EC50: read-out: α-Syn EC50; for Emax: read-out: α-Syn Emax.
The target of the next assay is T1, SCD5 (Homo sapiens, UniProt Q86SK9).
T1 construct: host or cells: S. cerevisiae ole1Δ strain (W303 pdr1Δ pdr3Δ background), plasmid pRS316 with TDH3 promoter and CYC1 terminator
T1 sequence (Q86SK9 1-330): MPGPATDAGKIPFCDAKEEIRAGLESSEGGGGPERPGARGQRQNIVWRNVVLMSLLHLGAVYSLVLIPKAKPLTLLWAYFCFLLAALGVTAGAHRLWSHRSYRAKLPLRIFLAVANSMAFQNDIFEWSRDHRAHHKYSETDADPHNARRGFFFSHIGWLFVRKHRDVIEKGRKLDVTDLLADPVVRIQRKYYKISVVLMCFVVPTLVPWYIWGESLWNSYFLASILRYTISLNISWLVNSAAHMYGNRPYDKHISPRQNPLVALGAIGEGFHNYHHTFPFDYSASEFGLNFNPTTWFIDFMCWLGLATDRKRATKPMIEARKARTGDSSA
The experiment in a line: Growth inhibition of humanized yeast strain expressing SCD5 as sole desaturase. Particulars: humanized yeast strain expressing SCD5. The assay is classed as cell-based. In outline:
(§1)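 OD600 growth read-out. ole1Δ yeast, pdr1Δ pdr3Δ, with Ole1/SCD1/SCD5 on a plasmid; SX-Ura media throughout; 2× cell density 0.02 in CSM-Galactose; DMSO compound dilutions; humidified 30° C.; Ole1 stopped at 24 h, SCD1/SCD5 at 40 h.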

A further assay addresses T2, SCD1 (Homo sapiens, UniProt O00767).
T2 construct: host or cells: S. cerevisiae ole1Δ strain (W303 pdr1Δ pdr3Δ background), plasmid pRS316 with TDH3 promoter and CYC1 terminator
T2 sequence (O00767 1-359): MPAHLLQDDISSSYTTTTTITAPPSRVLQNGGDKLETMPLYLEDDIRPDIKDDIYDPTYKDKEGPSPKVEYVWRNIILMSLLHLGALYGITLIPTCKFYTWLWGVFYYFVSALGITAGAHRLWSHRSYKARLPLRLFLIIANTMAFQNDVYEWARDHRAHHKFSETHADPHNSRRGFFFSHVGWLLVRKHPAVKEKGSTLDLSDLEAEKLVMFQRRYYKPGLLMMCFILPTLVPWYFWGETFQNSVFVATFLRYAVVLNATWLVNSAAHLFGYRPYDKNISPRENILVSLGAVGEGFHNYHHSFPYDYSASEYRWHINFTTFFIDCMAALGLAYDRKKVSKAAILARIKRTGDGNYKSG
The experiment in a line: Growth inhibition of humanized yeast strain expressing SCD1 as sole desaturase. The settings on record: humanized yeast strain expressing SCD1. The format is cell-based. In outline: as §1

The next assay addresses T3, Ole1 (Saccharomyces cerevisiae, UniProt P21147).
T3 construct: expressed in transfected cells; host or cells: S. cerevisiae ole1Δ strain (W303 pdr1Δ pdr3Δ background), plasmid pRS316 with TDH3 promoter and CYC1 terminator
T3 sequence (P21147 1-510): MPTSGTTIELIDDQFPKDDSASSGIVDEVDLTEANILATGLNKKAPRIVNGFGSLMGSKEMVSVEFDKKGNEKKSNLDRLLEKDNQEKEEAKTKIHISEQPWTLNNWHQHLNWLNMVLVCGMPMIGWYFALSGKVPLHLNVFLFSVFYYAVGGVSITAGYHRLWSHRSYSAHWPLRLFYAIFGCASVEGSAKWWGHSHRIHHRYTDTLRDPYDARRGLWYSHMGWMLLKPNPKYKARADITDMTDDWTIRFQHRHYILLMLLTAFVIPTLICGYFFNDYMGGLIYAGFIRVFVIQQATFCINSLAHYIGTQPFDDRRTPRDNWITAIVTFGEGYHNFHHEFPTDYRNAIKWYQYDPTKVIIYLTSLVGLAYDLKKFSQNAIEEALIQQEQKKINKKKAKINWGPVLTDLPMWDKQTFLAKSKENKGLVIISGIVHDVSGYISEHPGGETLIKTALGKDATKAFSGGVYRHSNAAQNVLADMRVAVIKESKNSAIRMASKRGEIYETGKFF
Description: Growth inhibition of yeast strain expressing Ole1 as sole desaturase. Particulars: yeast strain expressing Ole1 as sole desaturase. The assay is classed as cell-based. In outline:
as §1

By EC50 is commonly meant the concentration giving half of the maximal effect. For orientation: IC50 means the concentration needed to halve the response being measured. The low end stands for higher potency, the high end for lower potency.

Structures are written as SMILES. Bounds are passed on as bounds.

`COc1ccc(-c2noc(C3CCN(C(=O)CNC(=O)c4ccccc4)CC3)n2)cc1` [compound 10]: the results for the EC50 in assay [1] and in assay [2] were 4.61 µM and 4.87 µM, respectively. Moreover, the values for the Emax in assay [1] and in assay [2] were 736% and 392%, respectively. For the same compound, the IC50 on SCD5, on SCD1 and at Ole1 was greater than 45 µM throughout.

Regarding `COc1ccc(-c2noc(C3CCN(C(=O)COCc4ccccc4)CC3)n2)cc1OC` [Compound 31], in assay [1], the EC50 stood at 9.81 µM and the Emax is 721%. In assay [2], the EC50 came out at 7.51 µM and the Emax was 438%. On SCD5, the IC50 came out at 25.4 µM and the “SCD5 % Max Inhibition” value was 24.26%. At SCD1, the IC50 was greater than 45 µM and the “SCD1 % Max Inhibition” value came out at 81.19%. For the same compound, at Ole1, the IC50 is greater than 45 µM and the “OLE1 % Max Inhibition” value amounted to 79.60%.

With `CCN1C(=O)COc2ccc(-c3noc(C4CCN(C(=O)C5CC(=O)N(c6ccc(C)c(C)c6)C5)CC4)n3)cc21` (stereo not shown) [compound 4], the EC50 in assay [1] is 11.8 µM; in assay [2], 8.43 µM. In addition, the Emax in assay [1] is 76%; in assay [2], 59%. Besides, the IC50 on SCD5, against SCD1 and at Ole1 was greater than 45 µM each time.

As to `CC(C)c1ccc(C(=O)N2CCC(c3noc(-c4cccc(F)c4)n3)CC2)cc1` [Compound 52], in assay [1], the EC50 amounted to 14.5 µM and the Emax turned out to be 154%. Further, in assay [2], the EC50 was 9.06 µM and the Emax worked out at 82%. In addition, at SCD5, the IC50 was greater than 45 µM and the “SCD5 % Max Inhibition” value is recorded as −1.01%. On SCD1, the half-inhibitory concentration (IC50) is greater than 45 µM and the “SCD1 % Max Inhibition” value was determined as 1.65%. Further, at Ole1, the IC50 was greater than 45 µM and the “OLE1 % Max Inhibition” value came to 11.78%.

In the case of `CC(C)c1ccc(C(=O)N2CCC(c3nc(-c4cccc(F)c4)no3)CC2)cc1` [compound 8], the Emax was determined as 111% in assay [1] and 188% in assay [2]. The EC50 in assay [2] is 13.8 µM. For the same compound, the IC50 against SCD5, on SCD1 and against Ole1 was greater than 45 µM each time.

As for `Cc1nn(C)c2cc(-c3noc(N4CCN(C(=O)C5CC(=O)N(c6ccccc6)C5)CC4)n3)ccc12` (stereo not shown) [compound 96], the EC50 in assay [1] came to 0.228 µM; in assay [2], 0.026 µM. Further, the Emax in assay [1] was 840%; in assay [2], 343%. The IC50 against SCD5, against SCD1 and at Ole1 was greater than 45 µM throughout.

For the compound `O=C(NCC(=O)N1CCC(c2nc(-c3cccc(F)c3)no2)CC1)c1ccccc1` [Compound 42], the Emax in assay [1] worked out at 399%. Also, in assay [2], the EC50 is 12.5 µM and the Emax turned out to be 255%. Also, on SCD5, the IC50 is greater than 45 µM and the “SCD5 % Max Inhibition” value is 47.40%. Also, at SCD1, the IC50 is greater than 45 µM and the “SCD1 % Max Inhibition” value stood at 90.77%. Besides, at Ole1, the IC50 was greater than 45 µM and the “OLE1 % Max Inhibition” value turned out to be 95.43%.

Regarding `COc1ccc(-c2noc(C3CCN(C(=O)[C@@H]4CC(=O)N(c5ccc(C)c(C)c5)C4)CC3)n2)cc1OC` [compound 68], in assay [1], the EC50 was 3.12 µM and the Emax came out at 775%. In addition, in assay [2], the EC50 was 1.86 µM and the Emax came out at 652%. This compound came in with an IC50 on Ole1 greater than 45 µM.

In the case of `COc1ccc(-c2noc(C3CCN(C(=O)[C@H]4CC(=O)N(c5ccccc5)C4)CC3)n2)cc1OC` [compound 65], in assay [1], the EC50 worked out at 0.987 µM and the Emax was 779%. Besides, in assay [2], the EC50 came out at 0.036 µM and the Emax is 643%. This compound also gave an IC50 against Ole1 greater than 45 µM.

On to `COc1ccc(-c2noc(C3CCN(C(=O)COc4cc(O)c5c(c4)OC(C)(C)CC5=O)CC3)n2)cc1OC` [compound 77], for which the Emax stood at 436% in assay [1] and 345% in assay [2].

Consider `CCOc1ccc(-c2noc(C3CCN(C(=O)C4CC(=O)N(c5ccccc5)C4)CC3)n2)cc1OC` (stereo not shown) [compound 84], for which, in assay [1], the EC50 was 0.956 µM and the Emax was determined as 866%. Besides, in assay [2], the EC50 came out at 0.06 µM and the Emax came out at 463%.

With `O=C(NC1CC1c1ccccc1)N1CCC(c2nc(-c3ccc4ccccc4n3)no2)CC1` (stereo not shown) [compound 82], in assay [1], the EC50 turned out to be 16.8 µM and the Emax turned out to be 40%.

`COc1ccc(-c2noc(C3CCN(C(=O)C4CC(=O)N(c5ccccc5)C4)CC3)n2)cc1OC` (stereo not shown) [compound 18]: the EC50 was determined as 1.51 µM in assay [1] and 0.266 µM in assay [2]. Moreover, the Emax worked out at 826% in assay [1] and 452% in assay [2]. Also, the IC50 on SCD5 and against Ole1 was greater than 45 µM throughout.

Turning to `CC1(C)CC(=O)c2c(O)cc(OCC(=O)N3CCC(c4nc(-c5ccccc5)no4)CC3)cc2O1` [compound 76], the EC50 in assay [1] stood at 14.8 µM; in assay [2], 9.92 µM. Besides, the Emax in assay [1] worked out at 162%; in assay [2], 76%.

For `COc1ccc(-c2noc(C3CCN(C(=O)CN(C)C(=O)c4ccccc4)CC3)n2)cc1OC` [compound 22], the results for the Emax in assay [1] and in assay [2] were 372% and 334%, respectively. For the same compound, in assay [2], the EC50 turned out to be 8.42 µM. Also, the IC50 worked out at 30 µM on SCD5 and 40.5 µM at Ole1.

Regarding `COc1ccc(-c2noc(C3CCN(C(=O)Cc4cncc(C)n4)CC3)n2)cc1OC` [Compound 45], in assay [1], the EC50 worked out at 29.3 µM and the Emax stood at 19%. For the same compound, in assay [2], the EC50 worked out at 26 µM and the Emax is 121%.

`COc1ccc(-c2noc(C3CCN(C(=O)[C@@H]4CC(=O)N(c5ccccc5)C4)CC3)n2)cc1OC` [compound 66]: in assay [1], the half-maximal effective concentration (EC50) came to 21.2 µM and the Emax is 790%. In assay [2], the EC50 turned out to be 11.1 µM and the Emax worked out at 350%. This compound returned an IC50 against Ole1 greater than 45 µM.

On to `COc1cccc(C(=O)NCC(=O)N2CCC(c3nc(-c4ccc5c(C)nn(C)c5c4)no3)CC2)n1` [Compound 154], for which, in assay [2], the EC50 stood at 0.057 µM and the Emax stood at 410%. In addition, on SCD5, the IC50 was greater than 45 µM and the “SCD5 % Max Inhibition” value was determined as 3.25%. For the same compound, on SCD1, the IC50 is greater than 45 µM and the “SCD1 % Max Inhibition” value was 68.90%. Moreover, on Ole1, the IC50 is greater than 45 µM and the “OLE1 % Max Inhibition” value was 1.20%.

In the case of `Cc1nn(C)c2cc(-c3noc(C4CCN(C(=O)C5CC(=O)N(c6ccccc6)C5)CC4)n3)cnc12` (stereo not shown) [Compound 138], in assay [2], the EC50 is 1.28 µM and the Emax worked out at 353%. Moreover, on SCD5, the IC50 is greater than 45 µM and the “SCD5 % Max Inhibition” value was 4.57%. In addition, on SCD1, the IC50 came out at 37.3 µM and the “SCD1 % Max Inhibition” value is recorded as 54.49%. Moreover, at Ole1, the IC50 was greater than 45 µM and the “OLE1 % Max Inhibition” value was 3.94%.

For the compound `COc1ccc(-c2noc(C3CCN(C(=O)CNC(C)=O)CC3)n2)cc1OC` [Compound 46], in assay [2], the EC50 turned out to be 10.9 µM and the Emax turned out to be 35%. For the same compound, on SCD5, the IC50 was greater than 45 µM and the “SCD5 % Max Inhibition” value is 72.35%. Moreover, on SCD1, the IC50 is greater than 45 µM and the “SCD1 % Max Inhibition” value is 70.27%. In addition, at Ole1, the IC50 was greater than 45 µM and the “OLE1 % Max Inhibition” value is reported as 87.95%.

For the compound `Cc1nn(C)c2cc(-c3noc(C4CCN(C(=O)C5CC(=O)N(c6ccccc6)C5)CC4)n3)ccc12` (stereo not shown) [compound 89], the EC50 in assay [2] amounted to 0.165 µM. Moreover, the Emax in assay [2] was 580%. The IC50 against SCD5, against SCD1 and against Ole1 was greater than 45 µM in each case.
